Laboratory results published in patent US20260174739A1 (priority 2022, published 2026).
Where two headings read alike, the source gives them in different places.

Experiments:
[1] = Human liver microsome assay (metabolic stability); format: in vitro ADME; conditions: pH 7.4, human liver microsomes 0.2 mg/mL, 1 μM test drug, NADPH, 37° C.; for half-life at 1 μM: read-out: Half-life (t1/2, min); for CLint scaled at 1 μM: read-out: Intrinsic clearance (Clint, mL/min/kg)
Experimental: Control and reagent: NADPH, magnesium chloride, testosterone, phosphate buffer, etc. were supplied by Dalian Meilun Biotech Co., Ltd., etc.
Liver microsome: human liver microsomes were supplied by Corning.
Experimental step: the liver microsome incubations were performed in 96-well plates, each incubation system having a volume of 200 μL, in a medium of 0.1 M phosphate buffer (pH 7.4), including liver microsomes at a final concentration of 0.2 mg/mL, 1 μM of the test drug, 3.0 mM MgCl2, 0.01% DMSO, 0.5% acetonitrile, and 2.0 mM NADPH. The incubation system described above without NADPH was pre-incubated at 37° C. for 5 min using a rotary water bath constant temperature oscillator. NADPH was added to initiate the reaction. At 0, 5, 15, 30, and 60 min, 20 μL of the sample was taken out from the incubation system after mixing well and added to 200 μL of acetonitrile containing an internal standard to terminate the reaction. Under the same conditions, 1 μM testosterone was used as a positive control to assess the reliability of the reaction system. For the negative control, phosphate buffer was used instead of NADPH, and all other incubation conditions remained the same. At 60 min, 20 μL of the sample was taken out after mixing well and added to 200 μL of termination solution containing an internal standard to terminate the reaction.
Sample analysis: After treatments such as precipitated protein extraction with an organic solvent, the incubated sample was analyzed using liquid chromatography-tandem mass spectrometry (LC-MS/MS). The concentrations of the test drug or the positive control drug in the sample were semi-quantified. The concentration in the sample was expressed using the ratio of the analyte peak area to the internal standard peak area.
Data processing and analysis: A standard curve of the In residual rate of the drug in the incubation system with respect to the incubation time was plotted by using Excel software, linear regression was performed to obtain a slope k, and the half-life T1/2 (min) and the intrinsic clearance CLint (mL/min/kg) were calculated according to the following formula: […]

[2] = In vivo metabolism (pharmacokinetic) experiment in mice; design: species or system male ICR mice; conditions: mouse, male ICR mice; for AUC(0-inf) / Cmax / half-life: oral 10 mg/kg, plasma; for AUC(0-inf): read-out: AUC0-inf(po); for Cmax: read-out: Cmax (po); for half-life: read-out: T1/2 (po) (converted)
Experimental: Animal: male ICR mice. The animals were randomly assigned to treatment groups and fasted for 12 h prior to dosing.
Drug: the compound of the present disclosure was dissolved in a vehicle (5% DMSO+5% Solutol HS15+90% saline). For intravenous (iv) administration, the dose was 2.5 mg/kg with a dosing volume of 5 mL/kg; for oral (po) administration, the dose was 10 mg/kg with a dosing volume of 10 mL/kg body weight. Sample collection and bioanalysis: blood was collected from the orbit of the mice and added into EP tubes containing heparin sodium at 0.083, 0.25, 0.5, 1, 2, 4, 6, and 8 h (n=3 for each time point). Immediately after blood collection, the mice were euthanized by cervical dislocation, and mouse brains were collected at the corresponding time points. All samples were promptly collected, snap-frozen, and stored at −70° C. for later use. Plasma samples were obtained by centrifugation of whole blood. 10 μL of plasma was mixed with 190 μL of internal standard solution (20 ng/ml in acetonitrile containing 0.1% formic acid). After mixing, the samples were centrifuged at 13000 rpm for 10 min, and 120 μL of the supernatant was separately collected. Depending on the sensitivity of the compound, 0.5-10 μL of the supernatant was taken for drug analysis using the appropriate liquid chromatography-tandem mass spectrometry (LC-MS/MS). Each analyte was calibrated and identified using standards. According to brain tissue: the extract (50% acetonitrile/water) at a ratio of 1 g:8 mL was homogenized for 2 min using five 3 mm magnetic beads in an OMNI Bead Ruptor 24 Elite homogenizer at 3.2 m/s and centrifuged at 4° C. and 3000 g for 3 min. 50 μL of the supernatant was mixed with 200 μL of internal standard solution (20 ng/mL in 80% acetonitrile/water). After mixing, the samples were centrifuged at 13,000 rpm for 10 min, and 120 μL of the supernatant was separately collected. Depending on the sensitivity of the compound, 0.5-10 μL of the supernatant was taken for drug analysis using the appropriate LC-MS/MS method. Each analyte was calibrated and identified using standards.
Data analysis: drug concentrations below the lower limit of quantification (LLOQ) were considered zero. Pharmacokinetic parameters were analyzed using PK Solver with a non-compartmental, bolus injection or extravascular input analysis models. Data points below the LLOQ were excluded to improve the efficacy of t1/2 calculation.

human DAT = human DAT (Homo sapiens, UniProt Q01959); experiment: DAT transporter inhibitory activity test (neurotransmitter transporter uptake assay kit); format: cell-based; conditions: DAT stably transfected HEK cells; read-out: DAT (IC50)
Chain of human DAT (Q01959 whole entry): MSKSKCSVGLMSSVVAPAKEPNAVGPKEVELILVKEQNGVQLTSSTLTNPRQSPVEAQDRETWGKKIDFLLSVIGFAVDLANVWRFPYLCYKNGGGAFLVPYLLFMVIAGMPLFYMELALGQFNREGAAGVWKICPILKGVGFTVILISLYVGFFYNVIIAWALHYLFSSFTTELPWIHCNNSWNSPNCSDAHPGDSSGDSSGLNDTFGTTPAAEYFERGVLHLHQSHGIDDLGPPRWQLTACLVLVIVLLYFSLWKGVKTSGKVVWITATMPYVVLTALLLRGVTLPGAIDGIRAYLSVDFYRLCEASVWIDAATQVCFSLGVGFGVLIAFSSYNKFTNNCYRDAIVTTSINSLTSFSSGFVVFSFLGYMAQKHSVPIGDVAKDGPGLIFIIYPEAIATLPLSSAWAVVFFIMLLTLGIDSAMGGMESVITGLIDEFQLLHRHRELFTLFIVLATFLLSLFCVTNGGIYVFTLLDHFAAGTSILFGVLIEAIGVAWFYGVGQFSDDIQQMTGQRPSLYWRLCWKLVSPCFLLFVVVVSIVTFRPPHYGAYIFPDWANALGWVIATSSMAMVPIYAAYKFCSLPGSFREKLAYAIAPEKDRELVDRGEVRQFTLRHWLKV
Experimental: Transporter inhibition of human DAT and NET expressed in HEK-293 cells was assessed using a neurotransmitter transporter uptake assay kit. The assay was performed as described in the kit instructions, using centanafadine as a positive control. The specific procedures were as follows:
DAT stably transfected culture: The DAT-HEK cell line was cultured in DMEM medium containing 10% fetal bovine serum and 0.2 mg/mL hygromycin B at 37° C. with 5% carbon dioxide.
DAT stably transfected cell passage: the old medium was removed, and the cells were washed once with PBS; 1 mL of TrypLE™ Express solution was then added, and the cells were incubated at 37° C. for about 2 min. When the cells were detached from the bottom of the dish, about 5 mL of complete medium pre-heated at 37° C. was added. The cell suspension was gently pipetted to separate the aggregated cells. The cell suspension was transferred to a sterile centrifuge tube and centrifuged at 1000 rpm for 5 min. In order to maintain the physiological activity of the cells, the experimental cell confluence was controlled at about 80%.
• a) After overnight transfection of NET cells, the cells were digested with trypsin, resuspended with DMEM+10% Dialyzed FBS medium, seeded into a 384-well plate at 20000 cells/well, and incubated overnight. […] After centrifuging, the plate was incubated at 37° C. for 30 min. • e) A detection reagent was prepared using 1×HBSS, and 16 μL of the detection reagent was added to each well. […] Curve fitting and IC50 calculation were performed using GraphPad Prism software nonlinear regression method.

human SERT = human SERT (Homo sapiens, UniProt P31645); experiment: Inhibitory activity assay against 5-HT transporter (neurotransmitter transporter uptake assay kit); format: cell-based; conditions: HEK-293 cells overexpressing human SERT; read-out: 5-HTT (IC50)
Chain of human SERT (P31645 whole entry): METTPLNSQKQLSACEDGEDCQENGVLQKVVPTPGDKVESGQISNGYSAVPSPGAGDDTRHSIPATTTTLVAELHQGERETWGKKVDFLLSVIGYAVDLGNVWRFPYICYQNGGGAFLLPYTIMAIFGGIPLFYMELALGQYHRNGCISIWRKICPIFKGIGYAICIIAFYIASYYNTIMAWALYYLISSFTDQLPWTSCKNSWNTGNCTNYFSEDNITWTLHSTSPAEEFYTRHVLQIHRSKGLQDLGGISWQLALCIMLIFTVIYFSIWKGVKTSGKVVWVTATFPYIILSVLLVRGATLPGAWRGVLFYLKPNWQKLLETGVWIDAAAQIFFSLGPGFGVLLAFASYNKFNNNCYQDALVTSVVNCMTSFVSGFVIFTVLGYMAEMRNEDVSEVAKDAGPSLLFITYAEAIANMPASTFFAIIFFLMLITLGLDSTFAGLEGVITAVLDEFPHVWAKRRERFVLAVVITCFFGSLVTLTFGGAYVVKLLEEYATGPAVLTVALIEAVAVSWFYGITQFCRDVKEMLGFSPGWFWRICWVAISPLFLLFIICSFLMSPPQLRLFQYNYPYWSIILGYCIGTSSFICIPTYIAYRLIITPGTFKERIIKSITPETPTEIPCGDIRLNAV
Experimental: In HEK-293 cells overexpressing human SERT, the transporter inhibitory effect of the test compound on human SERT was assayed using a Neurotransmitter transporter uptake assay kit (Molecular devices).

NC1(c2ccccc2)CCCc2scnc21 (racemic) [rac-A32, 4-phenyl-4,5,6,7-tetrahydrobenzothiazol-4-amine]
half-life at 1 μM [1]: 196 min | CLint scaled at 1 μM [1]: 20.7 mL/min/kg

O=C(O)c1cc2c(s1)CCC(c1ccccc1)(N1CCOCC1)C2 (racemic) [rac-A46, 5-morpholino-5-phenyl-4,5,6,7-tetrahydrobenzothiophen-2-carboxylic acid]
AUC(0-inf) ([2]; male, ICR, po, 10 mg/kg): 3900 ng·h/mL | Cmax ([2]; male, ICR, po, 10 mg/kg): 2710 ng/mL | half-life ([2]; male, ICR, po, 10 mg/kg): 156 min

c1ccc(C2(N3CCOCC3)CCc3sccc3C2)cc1 (racemic) [rac-A47, 4-(5-phenyl-4,5,6,7-tetrahydrobenzothiophen-5-yl)morpholine]
IC50 (human DAT): 1.3 µM

c1ccc(C2(N3CCCC3)CCc3nnsc3C2)cc1 (racemic) [rac-A54, 6-phenyl-6-(pyrrolidin-1-yl)-4,5,6,7-tetrahydrobenzothiadiazole]
IC50 (human DAT): 2.8 µM

Clc1cccc(C2(N3CCCCC3)CCc3nnsc3C2)c1 (racemic) [rac-A58, 6-(3-chlorophenyl)-6-(piperidin-1-yl)-4,5,6,7-tetrahydrobenzothiadiazole]
IC50 (human DAT): 2.7 µM

CNC1(c2ccccc2)CCc2[nH]ncc2C1 (racemic) [rac-A69, N-methyl-5-phenyl-4,5,6,7-tetrahydro-1H-indazol-5-amine]
bioavailability ([2]; oral 10 mg/kg vs iv 2.5 mg/kg, read-out: F (%)): 132% | AUC(0-inf) [2]: 602 ng·h/mL | Cmax [2]: 456 ng/mL | half-life [2]: 41.4 min

c1ccc(C2(N3CCCCC3)CCc3ncsc3C2)cc1 (racemic) [rac-A71, 6-phenyl-6-(piperidin-1-yl)-4,5,6,7-tetrahydrobenzothiazole]
half-life at 1 μM [1]: 210 min | CLint scaled at 1 μM [1]: 13.8 mL/min/kg

CNC1(c2cccnc2)CCc2nc(N)sc2C1 (racemic) [rac-A99, N^6-methyl-6-(pyridin-3-yl)-4,5,6,7-tetrahydrobenzothiazole-2,6-diamine]
IC50 (human DAT): 11 µM

CCNC1(c2cccc(OC)c2)CCc2nc(N)sc2C1 (racemic) [rac-A226, N^6-ethyl-6-(3-methoxyphenyl)-4,5,6,7-tetrahydrobenzo[d]thiazole-2,6-diamine]
IC50 (human DAT): 2 µM | IC50 (human SERT): 2000 nM

CN(C)C1(c2ccccc2F)CCc2nc(N)sc2C1 (racemic) [rac-A234, 6-(2-fluorophenyl)-N^6,N^6-dimethyl-4,5,6,7-tetrahydrobenzo[d]thiazole-2,6-diamine]
IC50 (human DAT): 6.3 µM | IC50 (human SERT): 300 nM

NC1(c2ccc3ccccc3c2)CCc2sccc2C1 (racemic) [rac-A247, 5-(naphthalen-2-yl)-4,5,6,7-tetrahydrobenzo[b]thiophen-5-amine]
IC50 (human DAT): 1.5 µM | IC50 (human SERT): 4500 nM

CNCC1(c2ccccc2)CCc2nc(N)sc2C1 (racemic) [rac-A252, 6-((methylamino)methyl)-6-phenyl-4,5,6,7-tetrahydrobenzo[d]thiazol-2-amine]
IC50 (human DAT): 9.5 µM

COc1cccc(C2(N(C)C)CCc3nc(N)sc3C2)c1 (racemic) [rac-A283, 6-(3-methoxyphenyl)-N^6,N^6-dimethyl-4,5,6,7-tetrahydrobenzo[d]thiazole-2,6-diamine]
IC50 (human DAT): 0.45 µM

Nc1nc2c(s1)CC(N)(c1ccc3c(c1)OCO3)CC2 (racemic) [rac-A303, 6-(benzo[d][1,3]dioxol-5-yl)-4,5,6,7-tetrahydrobenzo[d]thiazole-2,6-diamine]
IC50 (human DAT): 8.2 µM

CN(C)C1(c2cccc(O)c2)CCc2nc(N)sc2C1 (racemic) [rac-A305, 3-(2-amino-6-dimethylamino-4,5,6,7-tetrahydrobenzo[d]thiazol-6-yl)phenol]
IC50 (human DAT): 0.24 µM

COc1cc(C2(N)CCc3nc(N)sc3C2)ccn1 (racemic) [rac-A309, 6-(2-methoxypyridin-4-yl)-4,5,6,7-tetrahydrobenzo[d]thiazole-2,6-diamine]
IC50 (human DAT): 14 µM

CC(C)Oc1cccc(C2(N)CCc3nc(N)sc3C2)c1 (racemic) [rac-A321, 6-(3-isopropoxyphenyl)-4,5,6,7-tetrahydrobenzo[d]thiazole-2,6-diamine]
IC50 (human DAT): 5.9 µM

CNC1(c2ccc(Cl)cc2)CCc2nc(N)sc2C1 (racemic) [rac-A332, 6-(4-chlorophenyl)-N^6-methyl-4,5,6,7-tetrahydrobenzo[d]thiazole-2,6-diamine]
IC50 (human DAT): 3.2 µM

CCOc1cccc(C2(NC)CCc3nc(N)sc3C2)c1 (racemic) [rac-A342, 6-(3-ethoxyphenyl)-N^6-methyl-4,5,6,7-tetrahydrobenzo[d]thiazole-2,6-diamine]
IC50 (human DAT): 0.35 µM

Nc1nc2c(s1)CC(NCC1CC1)(c1ccccc1F)CC2 (racemic) [rac-A374, N^6-(cyclopropylmethyl)-6-(2-fluorophenyl)-4,5,6,7-tetrahydrobenzo[d]thiazole-2,6-diamine]
IC50 (human DAT): 3.8 µM

NC1(c2cccc(O)c2)CCc2nc(NCC(F)(F)F)sc2C1 (racemic) [rac-A396, 3-(6-amino-2-((2,2,2-trifluoroethyl)amino)-4,5,6,7-tetrahydrobenzo[d]thiazol-6-yl)phenol]
IC50 (human DAT): 18 µM

Nc1nc2c(s1)C[C@](N)(c1ccccc1)CC2 [S-A1]
IC50 (human DAT): 6.5 µM

N[C@@]1(c2ccccc2)CCc2ncsc2C1 [S-A14]
IC50 (human DAT): 11 µM

Nc1nc2c(s1)C[C@@](c1ccccc1)(N1CCCC1)CC2 [S-A50]
IC50 (human DAT): 2.4 µM

CCOc1cccc([C@]2(N)CCc3nc(N)sc3C2)c1 [S-A228, (S)-6-(3-ethoxyphenyl)-4,5,6,7-tetrahydrobenzo[d]thiazole-2,6-diamine]
IC50 (human DAT): 1.8 µM
